The values below come from article PMC4160273 (Journal of the American Chemical Society, 2014).

Where two headings read alike, the source gives them in different places.

The conditions of data set [1]: thiol, cited from earlier work.
The target in a further data set is RSK2 CTD (Mus musculus, UniProt P18654). Conditions: after 4 hours, guanidine.
The subject of the next data set is endogenous RSK1 and RSK2. The data set is described as follows: RSK1/2 occupancy in MDA-MB-231 cells by competitive labeling with BODIPY-FMK. It is filed as cell-based. The settings on record: 0.1 and 1.0 μM, 2 h.

Turning to `OCCS` [BME, β-mercaptoethanol], in data set [1] (ref [34]), the pKa is given as 9.6.

On to `COc1cc(-c2n[nH]c3ccc(C=C(C#N)n4cccn4)cc23)cc(OC)c1OC` [S3], for which the “% dissociation / recovered from RSK2 after unfolding” value at RSK2 CTD was ~ 2%.

As for `Cc1ccc(-c2c(C=C(C#N)c3ccncc3)n(CCCO)c3ncnc(N)c23)cc1` [compound 17], in the data set with endogenous RSK1 and RSK2, the “Labeling of RSK1/2 by BODIPY-FMK in pretreated cells” value is reported as “less effective”.

As to `NCCS` [cysteamine], the pKa in data set [1] (ref [36]) is 8.4.
